The nature of data set [1]: Artificial intestinal membrane permeability (PAMPA) of nanoemulsion with quercetin, Example 8. It is filed as in vitro ADME. The following applies: PBS pH 6.8, quercetin 400 μg/ml, room temperature, 5 hr, analyte quercetin. How it is done:
The intestinal membrane permeability of pemetrexed (PMX), quercetin and the w/o/w secondary nanoemulsions including the mixture of hydroxypropyl beta-cyclodextrin, PMX/DCK ion-binding complex and poloxamer (HP-beta CD/PMX/DCK/P188) prepared in Example 5 and quercetin was evaluated using an artificial intestinal membrane (PAMPA; BD Biosciences, San Jose, Calif., USA).
(§1) Each sample was diluted with phosphate-buffered saline (PBS, pH 6.8) so that the concentration of pemetrexed was 200 μg/ml and the concentration of quercetin was 400 μg/ml, and was then added in an amount of 200 μl to the donor compartment of each well of a PAMPA plate, each acceptor compartment thereof was added with 300 μl of phosphate-buffered saline (PBS, pH 6.8), and the donor compartment and the acceptor compartment were linked and then allowed to stand at room temperature for 5 hr, after which the sample was recovered from the donor compartment and the acceptor compartment of each well of the PAMPA plate, and the concentration of the permeated drug was measured as follows.
The concentrations of PMX and PMX/DCK were analyzed by introducing 20 μl of the sample into an HPLC system with a C18 column (4.6×250 mm, 5 μm, 100 □) and allowing a mixture of purified water (pH 3.2, adjusted with phosphoric acid) and acetonitrile at 80:20 (v/v) as a mobile phase to flow at a flow rate of 1.0 ml/min. […]

Data set [2] relates to Caco-2 cell monolayer membrane. In words: Intestinal cell membrane permeability, Caco-2 cell monolayer, Example 9. The class given is in vitro ADME. The following applies: Caco-2 monolayer, apical to basolateral, pemetrexed 200 μg/ml in HBSS, 37° C., up to 5 hr. How it is done:
Caco-2 cells were treated at 3×10^5 cells in each well of a 12-well Transwell (pore size: 0.4 μm, surface area: 1.12 cm^2; Corning, N.Y., USA). Dulbecco's modified Eagles medium (DMEM; Lonza, Basel, Switzerland) containing 10% fetal bovine serum (FBS; Gibco™, Thermo Fisher Scientific) and 1% penicillin/streptomycin (Gibco™) was replaced every 48 hr for 21 days to 29 days, and a Caco-2 cell membrane having a transepithelial electrical resistance (TEER) of 350 Ωcm^2 or more was used for in-vitro intestinal cell membrane permeability tests.
Specifically, the culture medium was removed, culture was performed at 37° C. for 20 min with 0.5 ml of a Hanks' balanced salt solution (HESS), HBSS was removed, and each sample was diluted with HBSS so that the concentration of pemetrexed was 200 μg/ml, after which each sample thus diluted was added in an amount of 0.5 ml to the apical compartment of the Transwell, and the basolateral compartment of the Transwell was added with 1.5 ml of HBSS, followed by culturing at 37° C. After sample treatment, 100 μl of the sample was collected from the basolateral compartment of each well at 0.5, 1, 2, 3, 4 and 5 hr and then filtered with a membrane filter, after which the concentrations of PMX and the PMX/DCK ion-binding complex that permeated the intestinal cell membrane were measured using the same HPLC system as in Example 7. […]

The conditions of data set [3]: rat, in vivo, iv, 5 mg/kg.
Procedure: (§2) Separately, in order to evaluate oral bioavailability, a solution of pemetrexed in distilled water was injected in an amount of 200 μl into rats through the tail vein thereof. Blood samples (200 μl) were collected at scheduled times after individual drug administrations and immediately mixed with 50 μl of a sodium citrate (3.8%) solution. The collected blood samples were centrifuged at 2,500×g and 4° C. for 15 min, pemetrexed in plasma was extracted using a solid-phase extraction (SPE) cartridge, and the concentration of pemetrexed was measured through liquid chromatography/mass spectrometry (LC/MS).
(§3) Each value represents mean±standard deviation (n=4 in each group).
Data set [4] can be described thus: In-vivo bioavailability of oral nanoemulsion in rats, Example 11. The following applies: rat.
Data set [5] in a line: Artificial intestinal membrane permeability (PAMPA), Example 7. The class given is in vitro ADME. The following applies: PBS pH 6.8, pemetrexed 200 μg/ml, room temperature, 5 hr.
Text: The intestinal membrane permeability of pemetrexed (PMX), the mixture of hydroxypropyl beta-cyclodextrin and pemetrexed (HP-beta CD/PMX), the mixture of hydroxypropyl beta-cyclodextrin and PMX/DCK ion-binding complex (HP-beta CD/PMX/DCK), the mixture of hydroxypropyl beta-cyclodextrin, PMX/DCK ion-binding complex and poloxamer (HP-beta CD/PMX/DCK/P188) prepared in Example 4, and the w/o/w nanoemulsion including the mixture of hydroxypropyl beta-cyclodextrin, PMX/DCK ion-binding complex and poloxamer (HP-beta CD/PMX/DCK/P188) prepared in Example 5 was evaluated using an artificial intestinal membrane (PAMPA; BD Biosciences, San Jose, Calif., USA).
as §1, with “was 200 μg/ml, and” for “was 200 μg/ml and the concentration of quercetin was 400 μg/ml, and”, “the PAMPA plate and the” for “the PAMPA plate, and the”, “as follows. […]” for “as follows.”
The effective permeability (Pe) of each drug was calculated using the following equation. […]

A short description of data set [6]: in vivo. The following applies: rat.
Procedure: as §2, §3

Read-outs that look alike come from different tables or passages of the source.

For the compound `O=c1c(O)c(-c2ccc(O)c(O)c2)oc2cc(O)cc(O)c12` [Quercetin, quercetin], the “Permeability (effective permeability Pe of quercetin)” value in data set [1] was 4.51 ± 5.10 ×10^−6, cm/s.
Turning to `Nc1nc2[nH]cc(CCc3ccc(C(=O)N[C@@H](CCC(=O)O)C(=O)O)cc3)c2c(=O)[nH]1` [PMX, Pemetrexed], the “Permeability (apparent permeation coefficient Papp)” value in data set [2] is on record as 0.50 ± 0.09 ×10^−6, cm/s. In addition, in data set [3], the AUCinf is 9,414.5 ± 4,223.6 ng · h/ml, the AUClast is on record as 9,377.5 ± 4,169.4 ng · h/ml, the Cmax is 15,318 ± 6100.3 ng/ml and the T1/2 worked out at 0.35 ± 0.08 h. Moreover, the “Bioavailability (oral, compared to intravenous injection)” value in data set [4] is 12.0%. Further, in data set [4] (iv, 10 mg/kg), the AUCinf is on record as 29,390 ± 4,844 ng · h/ml, the AUClast is 31,340 ± 5,342 ng · h/ml, the Cmax is 32,220 ± 13,900 ng/ml and the T1/2 stood at 0.57 ± 0.07 h. This compound also gave a bioavailability in data set [4] (iv, 10 mg/kg) of 100%. Further, in data set [4] (po, 20 mg/kg), the AUCinf was 14,300 ± 2,272 ng · h/ml, the AUClast is listed as 7,546±938 ng · h/ml, the Cmax is 1,487±332 ng/ml and the Tmax came to 2.75 ± 3.50 h. In data set [4] (po, 20 mg/kg), this compound gave a half-life of 7.55 ± 0.94 h. Also, the “Permeability (effective permeability Pe of pemetrexed)” value in data set [5] is listed as 3.73 ± 1.15 ×10^−6, cm/s. The compound also returned a bioavailability in data set [6] of 1.49%. Also, in data set [6] (iv, 5 mg/kg), the bioavailability worked out at 100%. In data set [6] (po, 50 mg/kg), the AUC(0-inf) was determined as 2560 ng·h/mL, the AUC(0-t) stood at 1390 ng·h/mL, the concentration peaked (Cmax) at 452 ± 221 ng/mL and the Tmax stood at 0.83 ± 0.58 h. Besides, the half-life in data set [6] (po, 50 mg/kg) was 6.06 ± 1.83 h.

The values are drawn from patent US11648316B2, “Oral pharmaceutical composition containing pemetrexed and production method thereof” (ICURE BNP CO., LTD., priority 2017, dated 2023).
